# Test results taken from patent US20050090529A1, “3,5 Disubstituted indazole compounds with nitrogen-bearing 5-membered heterocycles, pharmaceutical compositions, and methods for mediating or inhibiting cell proliferation” (PFIZER INC, priority 2003, published 2005).
# Test system: Cyclin-dependent kinase
# Test: Cyclin-dependent kinase inhibition, % inhibition at 10 nM (library Examples 99-270)
# Format: biochemical
# Conditions: 10 nM compound
# Procedure: Cyclin-dependent kinase activity was measured by quantifying the enzyme-catalyzed, time-dependent incorporation of radioactive phosphate from [^32P]ATP or [^33P]ATP into a protein substrate. Unless noted otherwise, assays were performed in 96-well plates in a total volume of 50 μL, in the presence of 10 mM HEPES (N-[2-hydroxyethyl]piperazine-N′-[2-ethanesulfonic acid]) (pH 7.4), 10 mM MgCl2, 25 μM adenosine triphosphate (ATP), 1 mg/mL ovalbumin, 5 μg/mL leupeptin, 1 mM dithiothreitol, 10 mM beta-glycerophosphate, 0.1 mM sodium vanadate, 1 mM sodium fluoride, 2.5 mM ethylene glycol-bis(β-aminoethyl ethKer)-N,N,N′N′-tetraacetic acid (EGTA), 2% (v/v) dimethylsulfoxide, and 0.03-0.4 μCi [^32/33P]ATP per reaction. Reactions were initiated with enzyme, incubated at 30° C., and terminated after 20 minutes by the addition of ethylenediaminetetraacetic acid (EDTA) to 250 mM. The phosphorylated substrate was then captured on a nitrocellulose or phosphocellulose membrane using a 96-well filtration manifold, and unincorporated radioactivity was removed by repeated washing with 0.85% phosphoric acid. Radioactivity was quantified by exposing the dried membranes to a phosphorimager.
# Results of assays performed on compounds, which include the specific examples described above are provided in Examples 99-274 above, and in Table 1 below. Unless indicated otherwise in a particular entry, the units and assays used are as indicated in the applicable column of the table.
row,SMILES,% Inhib @ 10 nM
1,"CCNCc1cncc(-c2ccc3[nH]nc(-c4ncc(C(=O)NCc5ccc(CN(C)C)cc5)[nH]4)c3c2)c1C [Example 159, N-{4[(dimethylamino)methyl]benzyl}-2-(5-{5-[(ethylamino)methyl]-4-methylpyridin-3-yl}-1H-indazol-3-yl)-1H-imidazole-5-carboxamide]",28%
2,"CCNCc1cncc(-c2ccc3[nH]nc(-c4ncc(C(=O)N5CCN(CCO)CC5)[nH]4)c3c2)c1C [Example 125, 2-(4-{[2-(5-{5-[(ethylamino)methyl]-4-methylpyridin-3-yl}-1H-indazol-3-yl)-1H-imidazol-5-yl]carbonyl}piperazin-1-yl)ethanol]",40%
3,CCNCc1cncc(-c2ccc3[nH]nc(-c4ncc(C(=O)NCCc5cc(OC)c(O)c(OC)c5)[nH]4)c3c2)c1C [Example 167],28%
4,CCNCc1cncc(-c2ccc3[nH]nc(-c4ncc(C(=O)N(C)CCCN(C)C)[nH]4)c3c2)c1C [Example 122],30%
5,CCNCc1cncc(-c2ccc3[nH]nc(-c4ncc(C(=O)NC(CO)CCSC)[nH]4)c3c2)c1C (stereo not shown) [Example 172],36%
6,"CCNCc1cncc(-c2ccc3[nH]nc(-c4ncc(C(=O)N5CCC(CO)CC5)[nH]4)c3c2)c1C [Example 177, (1-{[2-(5-{5-[(ethylamino)methyl]-4-methylpyridin-3-yl}-1H-indazol-3-yl)-1H-imidazol-5-yl]carbonyl}piperidin-4-yl)methanol]",63%
7,"CCNCc1cncc(-c2ccc3[nH]nc(-c4ncc(C(=O)N5CCN(CC(=O)NC(C)C)CC5)[nH]4)c3c2)c1C [Example 118, 2-(4-{[2-(5-{5-[(ethylamino)methyl]-4-methylpyridin-3-yl}-1H-indazol-3-yl)-1H-imidazol-5-yl]carbonyl}piperazin-1-yl)-N-isopropylacetamide]",44%
8,CCNCc1cncc(-c2ccc3[nH]nc(-c4ncc(C(=O)N5CC6C[C@H]5CN6)[nH]4)c3c2)c1C [Example 187],44%
9,"CCNCc1cncc(-c2ccc3[nH]nc(-c4ncc(C(=O)N5CCNC(=O)CC5)[nH]4)c3c2)c1C [Example 231, 1-{[2-(5-{5-[(ethylamino)methyl]-4-methylpyridin-3-yl}-1H-indazol-3-yl)-1H-imidazol-5-yl]carbonyl}-1,4-diazepan-5-one]",67%
10,CCNCc1cncc(-c2ccc3[nH]nc(-c4ncc(C(=O)N5CCCC(O)(CN6CCOCC6)CC5)[nH]4)c3c2)c1C (stereo not shown) [Example 268],15%
11,"CCNCc1cncc(-c2ccc3[nH]nc(-c4ncc(C(=O)N5CCC(Cc6cccc(CO)c6)CC5)[nH]4)c3c2)c1C [Example 262, (3-[(1-{[2-(5-{5-[(ethylamino)methyl]-4-methylpyridin-3-yl}-1H-indazol-3-yl)-1H-imidazol-5-yl]carbonyl}piperidin-4-yl)methyl]phenyl}methanol]",59%
12,"CCNCc1cncc(-c2ccc3[nH]nc(-c4ncc(C(=O)NCc5ccc(OC(F)F)cc5)[nH]4)c3c2)c1C [Example 248, N-[4-(difluoromethoxy)benzyl]-2-(5-{5-[(ethylamino)methyl]-4-methylpyridin-3-yl}-1H-indazol-3-yl)-1H-imidazole-5-carboxamide]",67%
13,C=C(C)CN(CC)C(=O)c1cnc(-c2n[nH]c3ccc(-c4cncc(CNCC)c4C)cc23)[nH]1 [Example 207],69%
14,"CCNCc1cncc(-c2ccc3[nH]nc(-c4ncc(C(=O)N5CCN(CC6CCCO6)CC5)[nH]4)c3c2)c1C (stereo not shown) [Example 229, ethyl({4-methyl-5-[3-(5-{[4-(tetrahydrofuran-2-ylmethyl)piperazin-1-yl]carbonyl}-1H-imidazol-2-yl)-1H-indazol-5-yl]pyridin-3-yl}methyl)amine]",33%
15,"CCNCc1cncc(-c2ccc3[nH]nc(-c4ncc(C(=O)NCCCc5c[nH]cn5)[nH]4)c3c2)c1C [Example 189, 2-(5-{5-[(ethylamino)methyl]-4-methylpyridin-3-yl}-1H-indazol-3-yl)-N-[3-(1H-imidazol-4-yl)propyl]-1H-imidazole-5-carboxamide]",59%
16,CCNCc1cncc(-c2ccc3[nH]nc(-c4ncc(C(=O)N[C@H](CO)Cc5ccc(O)cc5)[nH]4)c3c2)c1C [Example 173],45%

row,SMILES,% Inhib @ 10 nM
1,"CCNCc1cncc(-c2ccc3[nH]nc(-c4ncc(C(=O)NCCc5c[nH]cn5)[nH]4)c3c2)c1C [Example 161, 2-(5-{5-[(ethylamino)methyl]-4-methylpyridin-3yl-1H-indazol-3yl)-N-2-(1H-imidazol-4-yl)ethyl]-1H-imidazole-5-carboxamide]",48%
2,"CCNCc1cncc(-c2ccc3[nH]nc(-c4ncc(C(=O)NCc5ccc6[nH]c(C)cc6c5)[nH]4)c3c2)c1C [Example 238, 2-(5-{5-[(ethylamino)methy]-4-methylpyridin-3-yl}-1H-indazol-3-yl)-N-[(2-methyl-1H-indol-5-yl)methyl]-1H-imidazole-5-carboxamide]",75%
3,CCNCc1cncc(-c2ccc3[nH]nc(-c4ncc(C(=O)NCCc5c[nH]c6cc(OC)ccc56)[nH]4)c3c2)c1C [Example 120],45%
4,"CCNCc1cncc(-c2ccc3[nH]nc(-c4ncc(C(=O)NCCCSC)[nH]4)c3c2)c1C [Example 174, 2-(5-{5-[(ethylamino)methyl]-4-methylpyridin-3-yl}-1H-indazol-3-yl)-N-[3-(methylthio)propyl]1H-imidazole-5-carboxamide]",41%
5,"CCNCc1cncc(-c2ccc3[nH]nc(-c4ncc(C(=O)NCCc5c[nH]c6ccc(F)cc56)[nH]4)c3c2)c1C [Example 221, 2-(5-{5-[(ethylamino)methyl]-4-methylpyridin-3-yl}-1H-indazol-3-yl)-N-[2-(5-fluoro-1H-indol-3-yl)ethyl]-1H-imidazole-5-carboxamide]",56%
6,"CCNCc1cncc(-c2ccc3[nH]nc(-c4ncc(C(=O)NCC56C=CC(O5)[C@H]5C(=O)N(C)C(=O)[C@H]56)[nH]4)c3c2)c1C (stereo partly drawn) [Example 208, 2-(5-{5-[(ethylamino)methyl]-4-methylpyridin-3-yl}-1H-indazol-3-yl)-N-{[(3aR,7aS)-2-methyl-13-dioxo-1,2,3,3a,7,7a-hexahydro-4H-4,7-epoxyisoindol-4-yl]methyl}-1H-imidazole-5-carboxamide]",55%
7,"CCNCc1cncc(-c2ccc3[nH]nc(-c4ncc(C(=O)NCc5ccc(C(F)(F)F)nc5)[nH]4)c3c2)c1C [Example 188, 2-(5-{5-[(ethylamino)methyl]-4-methylpyridin-3-yl}-1H-indazol-3-yl)-N-{(6-(trifluoromethyl)pyridin-3-yl]methyl}-1H-imidazole-5-carboxamide]",41%
8,"CCNCc1cncc(-c2ccc3[nH]nc(-c4ncc(C(=O)N[C@H](CO)Cc5c[nH]c6ccccc56)[nH]4)c3c2)c1C [Example 140, 2-(5-{5-[(ethylamino)methyl]-4-methylpyridin-3-yl}-1H-indazol-3-yl)-N-[(1S)-2-hydroxy-1-(1H-indol-3-ylmethyl)ethyl]-1 H-imidazole-5-carboxamide]",31%
9,"CCNCc1cncc(-c2ccc3[nH]nc(-c4ncc(C(=O)N5CCCC(COCC6CC6)C5)[nH]4)c3c2)c1C (stereo not shown) [Example 269, [(5-(3-[5-({3-[(cyclopropylmethoxy)methyl]piperidin-1-yl}carbonyl)-1H-imidazol-2-yl]-1H-indazol-5-yl}-4-methylpyridin-3-yl)methyl]ethylamine]",34%
10,CCNCc1cncc(-c2ccc3[nH]nc(-c4ncc(C(=O)NCc5ccc(OC)c6ccccc56)[nH]4)c3c2)c1C [Example 212],71%
11,"CCNCc1cncc(-c2ccc3[nH]nc(-c4ncc(C(=O)NCCN(C)CCCCCO)[nH]4)c3c2)c1C [Example 199, 2-(5-{5-[(ethylamino)methyl]-4-methylpyridin-3-yl}-1H-indazol-3-yl)-N-{2-[(5-hydroxypentyl)(methyl)amino]ethyl}-1H-imidazole-5-carboxamide]",25%
12,"CCNCc1cncc(-c2ccc3[nH]nc(-c4ncc(C(=O)N5CCOCC5)[nH]4)c3c2)c1C [Example 152, ethyl[(4-methyl-5-{3-[5-(morpholin-4-ylcarbonyl)-1H-imidazol-2-yl]-1H-indazol-5-yl}pyridin-3-yl)methyl]amine]",67%
13,"CCNCc1cncc(-c2ccc3[nH]nc(-c4ncc(C(=O)N5CCC(c6c[nH]c7ccccc67)CC5)[nH]4)c3c2)c1C [Example 201, ethyl({5-(3-(5-{[4-(1H-indol-3-yl)pipendin-1-yl]carbonyl}-1H-imidazol-2-yl)-1H-indazol-5-yl]-4-methylpyridin-3-yl}methyl)amine]",67%
14,CCNCc1cncc(-c2ccc3[nH]nc(-c4ncc(C(=O)N5CCN(c6ncccc6C#N)CC5)[nH]4)c3c2)c1C [Example 226],62%
15,"CCNCc1cncc(-c2ccc3[nH]nc(-c4ncc(C(=O)NC5(CO)CCCC5)[nH]4)c3c2)c1C [Example 139, 2-(5-{5-[(ethylamino)methyl]-4-methylpyridin-3-yl}-1H-indazol-3-yl)-N-[1-(hydroxymethyl)cyclopentyl]-1H-imidazole-5-carboxamide]",64%
